# Reference: patent publication US20240417406A1, “NITROGEN-CONTAINING TRICYCLIC COMPOUND AND PHARMACEUTICAL USE THEREOF” (JAPAN TOBACCO INC., priority 2021, published 2024)
# Molecular target: human PDHK2 (hPDHK2) (Homo sapiens (Human), UniProt Q15119)
# Test: Inhibitory action of PDHK2 activity (PDH/hPDHK2 complex, residual PDH activity by NADH absorbance at 340 nm)
# Format: biochemical
# Details: FLAG-tagged recombinant hPDHK2 with porcine heart PDH complex; PDHK reaction 45 min at room temperature
# Protocol: In the case of human PDHK2 (hPDHK2, NCBI Reference Database Accession number NM_002611.4), modified hPDHK2 cDNA wherein FLAG-Tag sequence was added to the N terminal of hPDHK2 cDNA clone (pReceiver-M01/PDK2-GeneCopoeia) as the base was prepared by polymerase chain reaction (PCR) and ligated to the NdeI/EcoRI site of pET-17b vector (Merck KGaA, Catalog Number 69663-3). The recombinant construct was transformed into Escherichia coli DH5a. The recombinant clones were identified, and plasmid DNA was isolated and subjected to the DNA sequence analysis. One clone which had the expected nucleic acid sequence was selected for expression work.
# For expression of hPDHK2 activity, Escherichia coli strain BL21(DE3) cells (Merck KGaA, Catalog Number 69450-4) were transformed with the pET17b vector containing modified hPDHK2 cDNA. The Escherichia coli were grown to an optical density 0.6 ([…]) at 30° C. Protein expression was induced by the addition of 500 μmol/L isopropyl-β-thiogalactopyranoside. The Escherichia coli were cultured at 20° C. for 17 to for 18 hr and harvested by centrifugation. The harvested Escherichia coli was resuspended in a suspension buffer (20 mmol/L HEPES-NaOH, 500 mmol/L sodium chloride, 1% ethylene glycol, 0.1% Pluronic (registered trademark) F-68 (pH 8.0), cOmplete, EDTA-free (Roche) (pH 8.0)), and disrupted by a microfluidizer M-110H (MIZUHO INDUSTRIAL CO., LTD.). The precipitate was removed by centrifugation and the supernatant was added to DDDDK-tagged Protein PURIFICATION GEL (MEDICAL & BIOLOGICAL LABORATORIES CO., LTD., Code No. 3329). DDDDK-tagged Protein PURIFICATION GEL was washed with a washing buffer (20 mmol/L HEPES-NaOH, 500 mmol/L sodium chloride, 1% ethylene glycol, 0.1% Pluronic F-68 (pH 8.0)) and the bound protein was eluted with elution buffer 1 (20 mmol/L HEPES-NaOH, 100 μg/mL peptide (amino acid sequence DYKDDDDK) (SEQ ID NO: 1), 500 mmol/L sodium chloride, 1% ethylene glycol, 0.1% Pluronic F-68 (pH 8.0)). The eluted fractions containing FLAG-Tagged protein were pooled, concentrated by an ultrafiltration method, added to a gel filtration column (HiLoad 26/60 Superdex 200 (GE Healthcare Life Sciences, Code No. 17-1070-01)), and eluted with elution buffer 2 (20 mmol/L HEPES-NaOH, 150 mmol/L sodium chloride, 0.5 mmol/L ethylenediaminetetraacetic acid (EDTA), 1% ethylene glycol, 0.1% Pluronic F-68 (pH 8.0)). The eluted fractions were pooled and preserved at −80° C.
# PDH (porcine heart PDH complex, Sigma P7032) and 0.5 μg/mL hPDHK2 were mixed in an assay buffer (50 mmol/L 3-morpholinopropanesulfonic acid (pH 7.0), 20 mmol/L dipotassium hydrogen phosphate, 60 mmol/L potassium chloride, 2 mmol/L magnesium chloride, 0.4 mmol/L EDTA, 0.2% poloxamer, 2 mmol/L dithiothreitol) so that the final concentration of PDH was 0.025 U/mL, and the mixture was incubated at 4° C. overnight to obtain a PDH/hPDHK2 complex solution.
# PDH was mixed with the assay buffer so that the final concentration was 0.025 U/mL, and the mixture was incubated at 4° C. overnight to prepare a PDH solution.
# The test compounds were diluted with DMSO. […] DMSO (1.5 μL) was added to control wells instead of test compound. In addition, DMSO (1.5 μL) was added to blank wells instead of the test compound, and PDH solution was added instead of the PDH/hPDHK2 complex solution. To measure an inhibitory action of the test compound on the PDHK activity inherent in the PDH solution, a test compound was added and the PDH solution instead of the PDH/hPDHK2 complex solution was added to a blank+test compound well.
# Then, 10 μL of substrates (5 mmol/L sodium pyruvate, 5 mmol/L Coenzyme A, 12 mmol/L NAD, 5 mmol/L thiamine pyrophosphate, diluted with assay buffer) were added. The mixture was incubated at room temperature for 90 min, and the residual PDH activity was measured.
# The absorbance of each well at 340 nm was measured using a microplate reader to detect NADH produced by the PDH reaction. […]
row,SMILES,IC50 [nM]
1,"C[C@H]1Cn2nc(C3(F)CC3)cc2-c2cnnc([C@@](C)(O)C(F)(F)F)c21 (racemic) [Example 101, (R)-1,1,1-trifluoro-2-[(R)-9-(1-fluorocyclopropyl)-5-methyl-5,6-dihydropyrazolo[1′,5′:1,2]pyrido[3,4-d]pyridazin-4-yl]propan-2-ol and (S)-1,1,1-trifluoro-2-[(S)-9-(1-fluorocyclopropyl)-5-methyl-5,6-dihydropyrazolo[1′,5′:1,2]pyrido[3,4-d]pyridazin-4-yl]propan-2-ol]",29.2
2,"COC(=O)C12CCC(c3cc4n(n3)C[C@H](C)c3c-4cnnc3[C@@](C)(O)C(F)(F)F)(CC1)CC2 (racemic) [Example 102, methyl 4-[(R)-5-methyl-4-((R)-1,1,1-trifluoro-2-hydroxypropan-2-yl)-5,6-dihydropyrazolo[1′,5′:1,2]pyrido[3,4-d]pyridazin-9-yl]bicyclo[2.2.2]octane-1-carboxylate and methyl 4-[(S)-5-methyl-4-((S)-1,1,1-trifluoro-2-hydroxypropan-2-yl)-5,6-dihydropyrazolo[1′,5′:1,2]pyrido[3,4-d]pyridazin-9-yl]bicyclo[2.2.2]octane-1-carboxylate]",> 100
3,"C[C@H]1Cn2nc(C34CCC(C#N)(CC3)CC4)cc2-c2cnnc([C@@](C)(O)C(F)(F)F)c21 (racemic) [Example 103, 4-[(R)-5-methyl-4-((R)-1,1,1-trifluoro-2-hydroxypropan-2-yl)-5,6-dihydropyrazolo[1′,5′:1,2]pyrido[3,4-d]pyridazin-9-yl]bicyclo[2.2.2]octane-1-carbonitrile and 4-[(S)-5-methyl-4-((S)-1,1,1-trifluoro-2-hydroxypropan-2-yl)-5,6-dihydropyrazolo[1′,5′:1,2]pyrido[3,4-d]pyridazin-9-yl]bicyclo[2.2.2]octane-1-carbonitrile]",24.3
4,"C[C@H]1Cn2nc(C34CC(C#N)(C3)C4)cc2-c2cnnc([C@@](C)(O)C(F)(F)F)c21 (racemic) [Example 104, 3-[(R)-5-methyl-4-((R)-1,1,1-trifluoro-2-hydroxypropan-2-yl)-5,6-dihydropyrazolo[1′,5′:1,2]pyrido[3,4-d]pyridazin-9-yl]bicyclo[1.1.1]pentane-1-carbonitrile and 3-[(S)-5-methyl-4-((S)-1,1,1-trifluoro-2-hydroxypropan-2-yl)-5,6-dihydropyrazolo[1′,5′:1,2]pyrido[3,4-d]pyridazin-9-yl]bicyclo[1.1.1]pentane-1-carbonitrile]",36.9
5,C[C@H]1Cc2c(cnn2C2CC(C#N)C2)-c2onc([C@@](C)(O)C(F)(F)F)c21 (stereo in doubt) [Example 26],18.2
6,C[C@H]1Cc2nn(C3CC(C#N)C3)cc2-c2onc([C@@](C)(O)C(F)(F)F)c21 (stereo in doubt) [Example 27],31.5
7,C[C@H]1Cc2c(cnn2C2CC(C#N)C2)-c2onc([C@@](C)(O)C(F)(F)F)c21 (stereo in doubt) [Example 29],23.6
8,C[C@H]1Cc2nn(C3CC(C#N)C3)cc2-c2onc([C@@](C)(O)C(F)(F)F)c21 (stereo in doubt) [Example 30],21.2
9,"C[C@H]1Cc2c(cnn2-c2ccccc2)-c2cnc(C(C)(O)C(F)(F)F)n21 (stereo in doubt) [Example 73, (S)-1,1,1-trifluoro-2-((S)-5-methyl-3-phenyl-4,5-dihydro-3H-imidazo[1,5-a]pyrazolo[4,3-c]pyridin-7-yl)propan-2-ol]",15.7
10,"C[C@H]1Cn2c(nnc2C(F)(F)F)-c2onc([C@@](C)(O)C(F)(F)F)c21 [Example 1, (R)-1,1,1-trifluoro-2-((R)-6-methyl-3-(trifluoromethyl)-5,6-dihydroisoxazolo[5,4-c][1,2,4]triazolo[4,3-a]pyridin-7-yl)propan-2-ol]",24.3
11,C[C@H]1Cn2c(nnc2C2(C(F)(F)F)CC2)-c2onc([C@@](C)(O)C(F)(F)F)c21 [Example 2],19.2
12,C[C@H]1Cn2c(nnc2C(C)(F)F)-c2onc([C@@](C)(O)C(F)(F)F)c21 [Example 3],20.4
13,C[C@H]1Cn2c(nnc2C(C)(C)F)-c2onc([C@@](C)(O)C(F)(F)F)c21 [Example 4],10.9
14,Cc1nnc2n1C[C@H](C)c1c([C@@](C)(O)C(F)(F)F)noc1-2 [Example 6],11.7
15,C[C@H]1Cn2c(nnc2C2(F)CC2)-c2onc([C@@](C)(O)C(F)(F)F)c21 [Example 8],11.7
16,C[C@H]1Cc2nn(C3CC3)cc2-c2onc([C@@](C)(O)C(F)(F)F)c21 [Example 19],13.8
17,C[C@H]1Cn2c(nnc2C(F)F)-c2onc([C@@](C)(O)C(F)(F)F)c21 [Example 25],15.7
18,"C[C@H]1Cn2nc(OCC(C)(C)O)cc2-c2onc([C@@](C)(O)C(F)(F)F)c21 [Example 31, (R)-1,1,1-trifluoro-2-((R)-8-(2-hydroxy-2-methylpropoxy)-4-methyl-4,5-dihydroisoxazolo[5,4-c]pyrazolo[1,5-a]pyridin-3-yl)propan-2-ol]",13.7
19,COCCOc1cc2n(n1)C[C@@H](C)c1c([C@](C)(O)C(F)(F)F)noc1-2 [Example 43],28.2
20,C[C@@H]1Cc2nn(CC#N)cc2-c2onc([C@](C)(O)C(F)(F)F)c21 [Example 49],19.5

# The remaining molecules from weak to strong by IC50, led by results:
row,IC50 [nM],SMILES
1,10.6,C[C@H]1Cn2c(nnc2C2CC2)-c2onc([C@@](C)(O)C(F)(F)F)c21 [Example 5]
2,9.5,C[C@H]1Cn2c(nnc2C23CC(C(F)(F)F)(C2)C3)-c2onc([C@@](C)(O)C(F)(F)F)c21 [Example 9]
3,9.4,COC(=O)C12CC(c3nnc4n3C[C@H](C)c3c([C@@](C)(O)C(F)(F)F)noc3-4)(C1)C2 [Example 10]
4,9.2,C[C@H]1Cn2c(-c3ccc(F)cc3)nnc2-c2onc([C@@](C)(O)C(F)(F)F)c21 [Example 7]
5,9.1,C[C@H]1Cc2nn(CCC(C)(C)O)cc2-c2onc([C@@](C)(O)C(F)(F)F)c21 [Example 41]
6,8.7,C[C@H]1Cn2nc(OCC3(C#N)CC3)cc2-c2onc([C@@](C)(O)C(F)(F)F)c21 [Example 33]
7,8.5,"C[C@H]1Cc2[nH]ncc2-c2onc([C@@](C)(O)C(F)(F)F)c21 [Example 28, (R)-1,1,1-trifluoro-2-((S)-4-methyl-5,6-dihydro-4H-isoxazolo[5,4-e]indazol-3-yl)propan-2-ol]"
8,7.5,C[C@H]1Cn2c(nnc2C23CC(C(C)(C)O)(C2)C3)-c2onc([C@@](C)(O)C(F)(F)F)c21 [Example 13]
9,7.1,"C[C@H]1Cn2nc(OC3CCOCC3)cc2-c2onc([C@@](C)(O)C(F)(F)F)c21 [Example 59, (R)-1,1,1-trifluoro-2-((R)-4-methyl-8-((tetrahydro-2H-pyran-4-yl)oxy)-4,5-dihydroisoxazolo[5,4-c]pyrazolo[1,5-a]pyridin-3-yl)propan-2-ol]"
10,6.6,COC(=O)C12CCC(c3nnc4n3C[C@H](C)c3c([C@@](C)(O)C(F)(F)F)noc3-4)(CC1)CC2 [Example 11]
11,6,C[C@H]1Cn2c(nnc2C23CCC(C(C)(C)O)(CC2)CC3)-c2onc([C@@](C)(O)C(F)(F)F)c21 [Example 12]
12,5.8,C[C@H]1Cc2c(cnn2CCC(C)(C)O)-c2onc([C@@](C)(O)C(F)(F)F)c21 [Example 40]

# Same assay, conditions: at 100.0 nM, given when the IC50 value could not be calculated; read-out: hPDHK2 inhibitory rate
row,inhibition at 0.1 µM [%],SMILES
1,3,"COC(=O)C12CCC(c3cc4n(n3)C[C@H](C)c3c-4cnnc3[C@@](C)(O)C(F)(F)F)(CC1)CC2 (racemic) [Example 102, methyl 4-[(R)-5-methyl-4-((R)-1,1,1-trifluoro-2-hydroxypropan-2-yl)-5,6-dihydropyrazolo[1′,5′:1,2]pyrido[3,4-d]pyridazin-9-yl]bicyclo[2.2.2]octane-1-carboxylate and methyl 4-[(S)-5-methyl-4-((S)-1,1,1-trifluoro-2-hydroxypropan-2-yl)-5,6-dihydropyrazolo[1′,5′:1,2]pyrido[3,4-d]pyridazin-9-yl]bicyclo[2.2.2]octane-1-carboxylate]"
